Results reported in ChEMBL document CHEMBL5608244, “Preclinical Evaluation of Dihydropyrazole-Cored Positron Emission Tomography (PET) Ligands for Imaging of Receptor-Interacting Serine/Threonine Protein Kinase 1 (RIPK1) in the Brain” (J Med Chem, 2024).

Tests used:
[1] = Stability in saline measured for 60 to 150 mins by reversed-phase HPLC analysis; assay type: physicochemical; conditions: buffer; time 60-150 min
[2] = Stability in Balb/c mouse plasma measured for 60 to 150 mins by reversed-phase HPLC analysis; assay type: ADME; conditions: time 60-150 min
[3] = Drug uptake in thalamus of ICR mouse brain at 0.5 to 10 uM incubated for 30 mins by Phosphor Imager analysis; assay type: ADME, tissue-based; conditions: 0.5 h, dose 0.5-10 µM
[4] = Drug uptake in medulla of ICR mouse brain at 0.5 to 10 uM incubated for 30 mins by Phosphor Imager analysis; assay type: ADME, tissue-based, Medulla of organ; conditions: 0.5 h, dose 0.5-10 µM
[5] = Drug uptake in thalamus of ICR mouse brain assessed as reduction in radioactivity incubated for 30 mins in presence of 0.5 uM of GSK'547 by Phosphor Imager analysis; assay type: ADME, tissue-based; parameters: scale not given: the % may be the effect or the level left; conditions: 0.5 h
[6] = Biodistribution in ICR mouse blood at 0.74 MBq, iv measured after 2 mins by automatic gamma counter analysis; assay type: ADME, organism-based; conditions: in vivo
[7] = Biodistribution in ICR mouse liver at 0.74 MBq, iv measured after 2 mins by automatic gamma counter analysis; assay type: ADME, organism-based; conditions: in vivo
[8] = Biodistribution in ICR mouse kidneys at 0.74 MBq, iv measured after 2 mins by automatic gamma counter analysis; assay type: ADME, organism-based, Kidney; conditions: in vivo
[9] = Biodistribution in ICR mouse pancreas at 0.74 MBq, iv measured after 2 mins by automatic gamma counter analysis; assay type: ADME, organism-based; conditions: in vivo
[10] = Biodistribution in ICR mouse muscle at 0.74 MBq, iv measured after 2 mins by automatic gamma counter analysis; assay type: ADME, organism-based, Muscle tissue; conditions: in vivo
[11] = Biodistribution in ICR mouse blood at 0.74 MBq, iv measured after 10 mins by automatic gamma counter analysis; assay type: ADME, organism-based; conditions: in vivo
[12] = Biodistribution in ICR mouse lung at 0.74 MBq, iv measured after 10 mins by automatic gamma counter analysis; assay type: ADME, organism-based; conditions: in vivo
[13] = Biodistribution in ICR mouse small intestine at 0.74 MBq, iv measured after 10 mins by automatic gamma counter analysis; assay type: ADME, organism-based; conditions: in vivo
[14] = Biodistribution in ICR mouse brain at 0.74 MBq, iv measured after 30 mins by automatic gamma counter analysis; assay type: ADME, organism-based; conditions: in vivo, 0.5 h
[15] = Biodistribution in ICR mouse heart at 0.74 MBq, iv measured after 30 mins by automatic gamma counter analysis; assay type: ADME, organism-based; conditions: in vivo, 0.5 h
[16] = Biodistribution in ICR mouse kidneys at 0.74 MBq, iv measured after 30 mins by automatic gamma counter analysis; assay type: ADME, organism-based, Kidney; conditions: in vivo, 0.5 h
[17] = Biodistribution in ICR mouse pancreas at 0.74 MBq, iv measured after 30 mins by automatic gamma counter analysis; assay type: ADME, organism-based; conditions: in vivo, 0.5 h
[18] = Biodistribution in ICR mouse muscle at 0.74 MBq, iv measured after 30 mins by automatic gamma counter analysis; assay type: ADME, organism-based, Muscle tissue; conditions: in vivo, 0.5 h
[19] = Biodistribution in ICR mouse bone at 0.74 MBq, iv measured after 30 mins by automatic gamma counter analysis; assay type: ADME, organism-based, Bone element; conditions: in vivo, 0.5 h
[20] = Biodistribution in ICR mouse stomach at 0.74 MBq, iv measured after 30 mins by automatic gamma counter analysis; assay type: ADME, organism-based; conditions: in vivo, 0.5 h
[21] = Biodistribution in ICR mouse blood at 0.74 MBq, iv measured after 60 mins by automatic gamma counter analysis; assay type: ADME, organism-based; conditions: in vivo, 1 h
[22] = Biodistribution in ICR mouse heart at 0.74 MBq, iv measured after 60 mins by automatic gamma counter analysis; assay type: ADME, organism-based; conditions: in vivo, 1 h
[23] = Biodistribution in ICR mouse pancreas at 0.74 MBq, iv measured after 60 mins by automatic gamma counter analysis; assay type: ADME, organism-based; conditions: in vivo, 1 h
[24] = Biodistribution in ICR mouse muscle at 0.74 MBq, iv measured after 60 mins by automatic gamma counter analysis; assay type: ADME, organism-based, Muscle tissue; conditions: in vivo, 1 h
[25] = Biodistribution in ICR mouse stomach at 0.74 MBq, iv measured after 60 mins by automatic gamma counter analysis; assay type: ADME, organism-based; conditions: in vivo, 1 h
[26] = Biodistribution in ICR mouse assessed as decrease in drug accumulation in bone with marrow at 0.74 MBq, iv pretreated with 1-(5-(3-fluorophenyl)-4,5-dihydro-1H-pyrazol-1-yl)-2,2-dimethylpropan-1-one followed by compound administration measured after 10 mins by automatic gamma counter analysis; assay type: ADME, organism-based; parameters: scale not given: the % may be the effect or the level left; conditions: in vivo
[27] = Biodistribution in ICR mouse assessed as decrease in drug accumulation in small intestine at 0.74 MBq, iv pretreated with 1-(5-(3-fluorophenyl)-4,5-dihydro-1H-pyrazol-1-yl)-2,2-dimethylpropan-1-one followed by compound administration measured after 10 mins by automatic gamma counter analysis; assay type: ADME, organism-based; parameters: scale not given: the % may be the effect or the level left; conditions: in vivo
[28] = Biodistribution in ICR mouse assessed as drug accumulation in liver at 0.74 MBq, iv pretreated with GSK'547 followed by compound administration measured after 10 mins by automatic gamma counter analysis; assay type: ADME, organism-based; conditions: in vivo
[29] = Biodistribution in ICR mouse assessed as drug accumulation in bone without marrow at 0.74 MBq, iv pretreated with 1-(5-(3-fluorophenyl)-4,5-dihydro-1H-pyrazol-1-yl)-2,2-dimethylpropan-1-one followed by compound administration measured after 10 mins by automatic gamma counter analysis; assay type: ADME, organism-based; conditions: in vivo
[30] = Biodistribution in ICR mouse assessed as drug accumulation in bone without marrow at 0.74 MBq, iv pretreated with GSK'547 followed by compound administration measured after 10 mins by automatic gamma counter analysis; assay type: ADME, organism-based; conditions: in vivo
[31] = Biodistribution in ICR mouse assessed as decrease in drug accumulation in bone with marrow at 0.74 MBq, iv pretreated with GSK'547 followed by compound administration measured after 10 mins by automatic gamma counter analysis; assay type: ADME, organism-based; parameters: scale not given: the % may be the effect or the level left; conditions: in vivo
[32] = Biodistribution in ICR mouse assessed as decrease in drug accumulation in small intestine at 0.74 MBq, iv pretreated with GSK'547 followed by compound administration measured after 10 mins by automatic gamma counter analysis; assay type: ADME, organism-based; parameters: scale not given: the % may be the effect or the level left; conditions: in vivo
[33] = Drug metabolism in mouse brain assessed as parent compound remaining at 13.5 MBq, iv measured after 30 mins by HPLC analysis; assay type: ADME, organism-based; conditions: read-out: Activity
[34] = Drug metabolism in mouse plasma assessed as polar radiometabolites accumulation at 13.5 MBq, iv measured after 30 mins by HPLC analysis; assay type: ADME, organism-based; conditions: 0.5 h
[35] = Drug metabolism in mouse brain assessed as polar radiometabolites accumulation at 13.5 MBq, iv measured after 30 mins by HPLC analysis; assay type: ADME, organism-based; conditions: in vivo, 0.5 h
[36] = Drug metabolism in mouse liver assessed as polar radiometabolites accumulation at 13.5 MBq, iv measured after 30 mins by HPLC analysis; assay type: ADME, organism-based; conditions: in vivo, 0.5 h
[37] = Drug uptake in Sprague-Dawley rat brain at 10 to 17.6 MBq, iv treated for about 1 min by PET analysis; assay type: ADME, organism-based; conditions: in vivo, dose 10-17.6 MBq
[38] = Drug uptake in brain of TNF-alpha-induced SIRS Sprague-Dawley rat model at 9.9 to 14.8 MBq, iv measured for 5 mins by PET analysis; assay type: ADME, organism-based; conditions: in vivo, dose 9.9-14.8 MBq
[39] = Drug uptake in brain of TNF-alpha-induced SIRS Sprague-Dawley rat model assessed as decrease in radioactivity at 9.9 to 14.8 MBq, iv measured upto 20 mins by PET analysis; assay type: ADME, organism-based; parameters: scale not given: the % may be the effect or the level left; conditions: in vivo, dose 9.9-14.8 MBq
[40] = Drug uptake in brain of Sprague-Dawley rat at 9.9 to 14.8 MBq, iv pretreated with 1-(5-(3-fluorophenyl)-4,5-dihydro-1H-pyrazol-1-yl)-2,2-dimethylpropan-1-one measured upto 20 mins by PET analysis; assay type: ADME, organism-based; conditions: in vivo, dose 9.9-14.8 MBq

Stability [1]: > 99% | Stability [2]: > 98% | Drug uptake [3]: Active | Drug uptake [4]: Active | Activity [5]: ~ 5% | Drug uptake [6]: 4.79 % ID/g | Drug uptake [7]: 10.83 % ID/g | Drug uptake [8]: 10.39 % ID/g | Drug uptake [9]: 6.65 % ID/g | Drug uptake [10]: 3.7 % ID/g | Drug uptake [11]: 4.92 % ID/g | Drug uptake [12]: 7.23 % ID/g | Drug uptake [13]: 12.64 % ID/g | Drug uptake [14]: 0.48 % ID/g | Drug uptake [15]: 1.3 % ID/g | Drug uptake [16]: 9.68 % ID/g | Drug uptake [17]: 1.51 % ID/g | Drug uptake [18]: 1.13 % ID/g | Drug uptake [19]: 8.26 % ID/g | Drug uptake [20]: 0.44 % ID/g | Drug uptake [21]: 0.57 % ID/g | Drug uptake [22]: 0.5 % ID/g | Drug uptake [23]: 1.46 % ID/g | Drug uptake [24]: 0.47 % ID/g | Drug uptake [25]: 0.18 % ID/g | Activity [26]: 14.8% | Activity [27]: 25.3% | Drug uptake [28]: 23.2% | Drug uptake [29]: 21% | Drug uptake [30]: 12.1% | Activity [31]: 11.9% | Activity [32]: 13.3% | remaining at 0.5 h [33]: 22.4% | Drug metabolism [34]: Metabolite_Detected | Drug metabolism [35]: Metabolite_Detected | Drug metabolism [36]: Metabolite_Detected | SUVmax [37]: 1.3 | Drug uptake [38]: Active | Activity [39]: 9.1% | Drug uptake [40]: 9.8%
SMILES: CC(C)(C)C(=O)N1N=CCC1c1cccc([18F])c1 (stereo not given)
